Reference: patent US20060030603A1, “Novel aryl urea analogs and use thereof as antibacterial agents” (priority 2004, published 2006)
In brackets after ≈: the same amount, converted by molar mass. Read-outs that look alike come from different tables or passages of the source.

How the values were obtained:
S. aureus ATCC 13709 = assay: MIC assay, S. aureus; assay type: cell-based
Description: (§1) In vitro structure/activity relationship (“SAR”) tests were performed according to the following procedure: MIC assays were carried out in a 150 μL volume in duplicate in 96-well clear flat-bottom plates. The bacterial suspension from an overnight culture growth in the appropriate medium was added to a solution of test compound in 0.5% DMSO in water. Final bacterial inoculum was approximate 10^3-10^4 CFU/well. The percentage growth of the bacteria in the test wells relative to that observed for a control well containing no compound was determined by measuring absorbance at 595 nm (A595) after 20-24 h at 37° C. […] The bacterial strains used for the assays include S. aureus ATCC 13709, S. pyogenes ATCC 49399, E. faecalis ATCC 29212, E. faecium ATCC 6569, E. coli ATCC 25922, K. pneumoniae ATCC 13383, P. vulgaris ATCC 8427, P. aeruginosa ATCC 25416. The results of the in vitro SAR tests are in Tables 1-3.

S. aureus (ATCC 13709) = assay: Mouse Protection Assay (lethal murine model of bacterial infection); assay type: in vivo, ICR-CD-1 female mice; conditions: 1 × 2 mg/Kg, positive control, 1 h and 3 h post infection, one week
Description: The in vivo tests were preformed according to the following procedure:
Mouse Protection Assay: 10 mice/dose group (ICR-CD-1 female mice 18-20 grams, Charles River) were infected with a lethal dose (10^6 CFU/mouse) of S. aureus (ATCC 13709) suspended in 7.5% hog Gastric Mucin IP. The infected animals were treated at 1 h and 3 h post infection with either compound 12e (lactate salt) from 37 mg/kg down to 2.3 mg/kg or compound 14b (HCl salt) from 75 mg/kg down to 2.3 mg/kg (0.1 mL/mouse). The positive control drug was Vancomycin (Eli Lilly) 1 mg/kg.

S. pyogenes ATCC 49399 = assay: MIC assay, S. pyogenes; assay type: cell-based; conditions: Streptococcus pyogenes, ATCC49399; read-out: MIC S. pyogenes ATCC 49399
Description: as §1

E. faecalis ATCC 29212 = assay: MIC assay, E. faecalis; assay type: cell-based; conditions: Enterococcus faecalis, ATCC29212; read-out: MIC E. faecalis ATCC 29212
Description: as §1

E. faecium ATCC 6569 = assay: MIC assay, E. faecium; assay type: cell-based; conditions: Enterococcus faecium, ATCC6569; read-out: MIC E. faecium ATCC 6569
Description: as §1

E. coli ATCC 25922 = assay: MIC assay, E. coli; assay type: cell-based; conditions: Escherichia coli, ATCC25922; read-out: MIC E. coli ATCC 25922
Description: as §1

K. pneumoniae ATCC 13383 = assay: MIC assay, K. pneumoniae; assay type: cell-based; conditions: Klebsiella pneumoniae, ATCC13383; read-out: MIC K. pneumoniae ATCC 13383
Description: as §1

P. vulgaris ATCC 8427 = assay: MIC assay, P. vulgaris; assay type: cell-based; conditions: Proteus vulgaris, ATCC8427; read-out: MIC P. vulgaris ATCC 8427
Description: as §1

P. aeruginosa ATCC 25416 = assay: MIC assay, P. aeruginosa; assay type: cell-based; conditions: Pseudomonas aeruginosa, ATCC25416; read-out: MIC P. aeruginosa ATCC 25416
Description: as §1

[1] = Table 1, thiourea/urea analogs, acetate salts
[2] = Table 2, benzylamino group modified analogs
[3] = Table 2, benzylamino group modified analogs, read-out: MIC S. aureus
[4] = Staphylococcus aureus, ATCC13709, read-out: MIC S. aureus

Compound	MIC S. aureus (S. aureus ATCC 13709; [1])	MIC S. aureus (S. aureus ATCC 13709; [2])	further results
FC(F)(F)c1ccc(NC(=S)NCCCNCc2cc(Br)cc(Br)c2)cc1 [8p]	6 to 12 µM	–	–
O=C(NCCCNCc1cc(F)cc(F)c1)Nc1ccc(C(F)(F)F)cc1 [12n]	–	50 to 100 µM	–
O=C(NCCCNCc1cc(Br)cc(Br)c1O)Nc1ccc(C(F)(F)F)cc1 [12r]	–	–	MIC (S. aureus ATCC 13709; [3]): >100 µM
O=C(NCCCNCc1cc(Cl)cc(Cl)c1)Nc1ccc(C(F)(F)F)cc1 [12m]	–	6 to 12 µM	–
CSc1ccc(NC(=O)NCCCNCc2cc(Br)cc(Br)c2)cc1 [9e]	25 to 50 µM	–	–
FC(F)(F)c1cccc(NC(=S)NCCCNCc2cc(Br)cc(Br)c2)c1 [8i]	6 to 12 µM	–	–
COc1cccc(NC(=S)NCCCNCc2cc(Br)cc(Br)c2)c1 [8j]	25 to 50 µM	–	–
O=C(NCCCNCc1cc(Br)cc(Br)c1)Nc1cccc(C(F)(F)F)c1 [9b]	6 to 12 µM	–	–
S=C(NCCCNCc1cc(Br)cc(Br)c1)Nc1ccc(I)cc1 [8o]	12 to 25 µM	–	–
O=[N+]([O-])c1ccc(NC(=S)NCCCNCc2cc(Br)cc(Br)c2)cc1 [8q]	12 to 25 µM	–	–
Cc1ccc(NC(=S)NCCCNCc2cc(Br)cc(Br)c2)cc1 [8r]	12 to 25 µM	–	–
CC(=O)Nc1ccc(CNCCCNC(=O)Nc2ccc(C(F)(F)F)cc2)cc1 [12k]	–	–	MIC (S. aureus ATCC 13709; [3]): >100 µM
COc1ccc(NC(=S)NCCCNCc2cc(Br)cc(Br)c2)cc1 [8t]	25 to 50 µM	–	–
CN[C@H](CC(C)C)C(=O)N[C@H]1C(=O)N[C@@H](CC(N)=O)C(=O)N[C@H]2C(=O)N[C@H]3C(=O)N[C@H](C(=O)N[C@H](C(=O)O)c4cc(O)cc(O)c4-c4cc3ccc4O)[C@H](O)c3ccc(c(Cl)c3)Oc3cc2cc(c3O[C@@H]2O[C@H](CO)[C@@H](O)[C@H](O)[C@H]2O[C@H]2C[C@](C)(N)[C@H](O)[C@H](C)O2)Oc2ccc(cc2Cl)[C@H]1O [Vancomycin, reference compound]	–	–	Mice Alive/Total (S. aureus (ATCC 13709)): 10/10
O=C(NCCCNCc1cc(Br)cc(Br)c1)Nc1ccc(Cl)cc1 [9c]	6 to 12 µM	–	–
Fc1ccc(NC(=S)NCCCNCc2cc(Br)cc(Br)c2)c(F)c1F [8e]	6 to 12 µM	–	–
S=C(NCCCNCc1cc(Br)cc(Br)c1)Nc1cccc(Cl)c1 [8g]	6 to 12 µM	–	–
CC(=O)NC[C@H]1CN(c2ccc(N3CCOCC3)c(F)c2)C(=O)O1 [Linezolide, reference compound]	–	3 to 6 µM	MIC (S. aureus ATCC 13709; Staphylococcus aureus, ATCC13709, Table 1, thiourea/urea analogs, acetate salts, read-out: MIC S. aureus): 3 to 6 µM; MIC (S. aureus ATCC 13709; Staphylococcus aureus, ATCC13709, Table 4, read-out: MIC S. aureus ATCC 13709): 3 to 6 µM (≈ 1.01 to 2.02 µg/mL); MIC (S. pyogenes ATCC 49399): 1.5 to 3 µM (≈ 0.506 to 1.01 µg/mL); MIC (E. faecalis ATCC 29212): 3 to 6 µM (≈ 1.01 to 2.02 µg/mL); MIC (E. faecium ATCC 6569): > 100 µM; MIC (E. coli ATCC 25922): > 100 µM; MIC (K. pneumoniae ATCC 13383): > 100 µM; MIC (P. vulgaris ATCC 8427): 12 to 25 µM (≈ 4.05 to 8.43 µg/mL); MIC (P. aeruginosa ATCC 25416): > 100 µM
O=C(NCCCNCc1cccc(-c2ccccc2)c1)Nc1ccc(C(F)(F)F)cc1 [12c]	–	6 to 12 µM	–
COc1cc(Br)cc(CNCCCNC(=O)Nc2ccc(C(F)(F)F)cc2)c1O [12t]	–	12 to 25 µM	–
O=C(NCCCNCc1cc(Br)cc(Br)c1)Nc1ccc(C(F)(F)F)cc1 [9d, 1-[3-(3,5-Dibromo-benzylamino)-propyl]-3-(4-trifluoromethyl-phenyl)-urea]	–	3 to 6 µM	MIC (S. aureus ATCC 13709; [4]): 3 to 6 µM (≈ 1.53 to 3.05 µg/mL)
O=C(NCCCNCc1ccccc1OC(F)(F)F)Nc1ccc(C(F)(F)F)cc1 [12b]	–	12 to 25 µM	–
COc1ccc(-c2ccc(CNCCCNC(=O)Nc3ccc(C(F)(F)F)cc3)cc2)cc1 [12f]	–	3 to 6 µM	–

Compound	MIC S. aureus (S. aureus ATCC 13709; [1])	MIC S. aureus (S. aureus ATCC 13709; [2])	further results
N#Cc1ccc(NC(=S)NCCCNCc2cc(Br)cc(Br)c2)cc1 [8s]	25 to 50 µM	–	–
O=C(NCCCNCCCOc1ccc(Br)cc1Br)Nc1ccc(C(F)(F)F)cc1 [14a, 1-{3-[3-(2,4-Dibromo-phenoxy)-propylamino]-propyl}-3-(4-trifluoromethyl-phenyl)-urea]	–	–	MIC (S. aureus ATCC 13709; Staphylococcus aureus, ATCC13709, Table 2, benzylamino group modified analogs, read-out: MIC S. aureus): 3 to 6 µM (≈ 1.66 to 3.32 µg/mL)
O=C(NCCCNCc1ccc(Br)[nH]1)Nc1ccc(C(F)(F)F)cc1 [15e, 1-{3-[(5-bromo-1H-pyrrol-2-ylmethyl)-amino]-propyl}-3-(4-trifluoromethyl-phenyl)-urea]	–	–	MIC (S. aureus ATCC 13709; Staphylococcus aureus, ATCC13709, Table 3, heteroaryl analogs, read-out: MIC S. aureus): 3 to 6 µM (≈ 1.26 to 2.52 µg/mL)
S=C(NCCCNCc1cc(Br)cc(Br)c1)Nc1ccc(Cl)cc1 [8m]	6 to 12 µM	–	–
COc1ccccc1NC(=S)NCCCNCc1cc(Br)cc(Br)c1 [8c]	–	–	MIC (S. aureus ATCC 13709; Table 1, thiourea/urea analogs, acetate salts, read-out: MIC S. aureus): >100 µM
COc1cc(CNCCCNC(=O)Nc2ccc(C(F)(F)F)cc2)cc(OC)c1 [12p]	–	50 to 100 µM	–
COc1ccccc1NC(=O)NCCCNCc1cc(Br)cc(Br)c1 [9a]	25 to 50 µM	–	–
S=C(NCCCNCc1cc(Br)cc(Br)c1)Nc1ccc(Cl)c(Cl)c1 [8k, 1-[3-(3,5-Dibromo-benzylamino)-propyl]-3-(3,4-dichloro-phenyl)-thiourea]	–	–	MIC (S. aureus ATCC 13709; [4]): 3 to 6 µM (≈ 1.58 to 3.16 µg/mL)
CN(CCCNC(=O)Nc1ccc(C(F)(F)F)cc1)Cc1cc(Br)cc(Br)c1 [compound 13]	–	–	MIC (S. aureus ATCC 13709; [3]): >100 µM
CN(C)c1ccc(CNCCCNC(=O)Nc2ccc(C(F)(F)F)cc2)cc1 [12j]	–	12 to 25 µM	–
COc1ccccc1-c1ccc(CNCCCNC(=O)Nc2ccc(C(F)(F)F)cc2)cc1 [12g]	–	6 to 12 µM	–
CCOc1ccc(Br)cc1CNCCCNC(=O)Nc1ccc(C(F)(F)F)cc1 [12u]	–	6 to 12 µM	–
O=C(NCCCNCc1cc(Br)cc(Br)c1)Nc1ccc(OC(F)(F)F)cc1 [9g]	6 to 12 µM	–	–
Fc1ccc(NC(=S)NCCCNCc2cc(Br)cc(Br)c2)cc1 [8l]	12 to 25 µM	–	–
S=C(NCCCNCc1cc(Br)cc(Br)c1)Nc1ccc(Br)cc1 [8n]	12 to 25 µM	–	–
O=C(NCCCNCc1ccc(Cl)c(Cl)c1)Nc1ccc(C(F)(F)F)cc1 [12q]	–	3 to 6 µM	–
S=C(NCCCNCc1cc(Br)cc(Br)c1)Nc1cccc(Br)c1 [8h]	6 to 12 µM	–	–
Fc1cccc(NC(=S)NCCCNCc2cc(Br)cc(Br)c2)c1 [8f]	12 to 25 µM	–	–
O=C(NCCCNCc1cc(C(F)(F)F)cc(C(F)(F)F)c1)Nc1ccc(C(F)(F)F)cc1 [12o]	–	50 to 100 µM	–
O=C(NCCCNCc1ccc(OC(F)(F)F)cc1)Nc1ccc(C(F)(F)F)cc1 [12d]	–	3 to 6 µM	–
CSc1ccccc1NC(=S)NCCCNCc1cc(Br)cc(Br)c1 [8d]	50 to 100 µM	–	–
Fc1ccccc1NC(=S)NCCCNCc1cc(Br)cc(Br)c1 [8a]	25 to 50 µM	–	–
